# From patent publication US9849114B2, “Oxymetazoline for the treatment of ano-rectal disorders” (RDD Pharma Ltd., priority 2011, dated 2017)
# Where a name gives a salt, the structure may show the parent alone.
# What was measured:
# [1] = test system: patient having a reduced anal resting pressure; details: phenylephrine concentrations below 10%, topical; cited from earlier work
# Healthy volunteers = assay: Resting anal pressure by anorectal manometry after intraanal administration (Example 1); format: in vivo, human
# Procedure: Preparations of phenylephrine hydrochloride and oxymetazoline were prepared. The oxymetazoline was first dissolved in propylene glycol and then added to polyethylene glycol 1500 to obtain a solution in the concentration of 1 mg/1 mL.
# The preparations were administered intraanally. The doses are expressed as both a volume of a concentration of the drug solution and also as milligrams of the active ingredient.
# Resting anal pressure was determined by anorectal manometry for measuring contractility in the anus and rectum using the ManoScan 360™ catheter (Sierra Scientific Instruments).
# Healthy volunteers, men and women of 18 to 55 years old received intraanal dose of 40 mg (40 mL) or 80 mg (80 mL) phenylephrine or a dose of 1 mg oxymetazoline (1 mL; 0.1%). None of the volunteers had symptoms of anal incontinence nor previous anal surgery and presumed to have intact internal and external anal sphincters. Pre-treatment mean resting pressure was 85 mmHg for the phenyephrine 40 mg group, and 81 mmHg for the phenylephrine 80 mg group.
# After the application of the aforementioned doses of phenylephrine and oxymetazoline, resting anal pressure was determined at the following time intervals: […], […] The results are summarized in Tables 1 and 2 below and in FIG. 1.
# [2] = on lowering the pH of formulations, even with PVPs or PEGs; cited from earlier work
# healthy human subjects [3] = assay: Change in resting anal pressure at different oxymetazoline doses (Example 2); format: in vivo
# healthy human subjects [4] = assay: Cardiac effect of oxymetazoline: blood pressure and heart rate (Example 2); format: in vivo
# Excerpt: The effect of oxymetazoline on cardiac parameters was examined in four healthy human subjects.
# [5] = Solubility of oxymetazoline; format: physicochemical; details: aqueous and non aqueous media
# [6] = Phenylephrine 40 mg intraanal, time 90 min
# [7] = Phenylephrine 40 mg intraanal, time 180 min
# [8] = Phenylephrine 40 mg intraanal, time 240 min
# [9] = Phenylephrine 80 mg intraanal, time 90 min
# [10] = Phenylephrine 80 mg intraanal, time 180 min
# [11] = Phenylephrine 80 mg intraanal, time 240 min
# [12] = oxymetazoline 1 mg (1 mL; 0.1%) intraanal, time 0 min
# [13] = oxymetazoline 1 mg (1 mL; 0.1%) intraanal, time 60 min
# [14] = oxymetazoline 1 mg (1 mL; 0.1%) intraanal, time 180 min
# [15] = oxymetazoline 1 mg (1 mL; 0.1%) intraanal, time 300 min
smiles,measurement,setting,value
CNC[C@H](O)c1cccc(O)c1 [Phenylephrine],Increase in the maximum resting pressure,[1],no significant increase
same,Maximum increase in anal pressure,Healthy volunteers; 40 mg phenylephrine intraanal,10 mmHg
same,Time to reach the initial (pre-treatment) resting anal pressure,Healthy volunteers; 40 mg phenylephrine intraanal,less than 5 hours
same,Maximum increase in anal pressure,Healthy volunteers; 80 mg phenylephrine intraanal,22.5 mmHg
same,Time in which increased pressure dropped nearly to the pressure prior to treatment,Healthy volunteers; 80 mg phenylephrine intraanal,≤ 3 h
same,Time in which resting anal pressure dropped down to the pressure observed prior to treatment,Healthy volunteers; 80 mg phenylephrine intraanal,less than 5 hours
same,Change Relative to T = 0 (resting anal pressure),"Healthy volunteers; Phenylephrine 40 mg intraanal, time 0 min",0 mmHg
same,Resting anal pressure,"Healthy volunteers; Phenylephrine 40 mg intraanal, time 0 min (pre-treatment)",85 mmHg
same,Change Relative to T = 0 (resting anal pressure),Healthy volunteers; [6],10 mmHg
same,Resting anal pressure,Healthy volunteers; [6],95 mmHg
same,Change Relative to T = 0 (resting anal pressure),Healthy volunteers; [7],7.5 mmHg
same,Resting anal pressure,Healthy volunteers; [7],92.5 mmHg
same,Change Relative to T = 0 (resting anal pressure),Healthy volunteers; [8],0 (±1.75) mmHg
same,Resting anal pressure,Healthy volunteers; [8],83.25 mmHg
same,Change Relative to T = 0 (resting anal pressure),"Healthy volunteers; Phenylephrine 80 mg intraanal, time 0 min",0 mmHg
same,Resting anal pressure,"Healthy volunteers; Phenylephrine 80 mg intraanal, time 0 min (pre-treatment)",81 mmHg
same,Change Relative to T = 0 (resting anal pressure),Healthy volunteers; [9],22.5 mmHg
same,Resting anal pressure,Healthy volunteers; [9],103.5 mmHg
same,Change Relative to T = 0 (resting anal pressure),Healthy volunteers; [10],6.75 mmHg
same,Resting anal pressure,Healthy volunteers; [10],87.75 mmHg
same,Change Relative to T = 0 (resting anal pressure),Healthy volunteers; [11],0 (±1.75) mmHg
same,Resting anal pressure,Healthy volunteers; [11],80.25 mmHg
"Cc1cc(C(C)(C)C)c(O)c(C)c1CC1=NCCN1 [oxymetazoline HCl, 6-tert-butyl-3-(2-imidazolin-2-ylmethyl)-2,4-dimentylphenol hydrochloride]",Photodegradation level,[2],significantly reduced
"Cc1cc(C(C)(C)C)c(O)c(C)c1CC1=NCCN1 [Oxymetazoline, 3-(4,5-dihydro-1H-imidazol-2-ylmethyl)-2,4-dimethyl-6-tert-butyl-phenol]",Change in resting anal pressure,healthy human subjects [3]; Oxymetazoline dose 0.01%,11 mmHg
same,Change in resting anal pressure,healthy human subjects [3]; Oxymetazoline dose 0.1%,18.5 mmHg
same,Significance of change in resting anal pressure with respect to baseline,healthy human subjects [3]; Oxymetazoline dose 0.1%,statistically significant
same,Change in resting anal pressure,healthy human subjects [3]; Oxymetazoline dose 0.5%,24.75 mmHg
same,Significance of change in resting anal pressure with respect to baseline,healthy human subjects [3]; Oxymetazoline dose 0.5%,statistically significant
same,Change in diastolic blood pressure,healthy human subjects [4]; Oxymetazoline dose 0.01%,2 mmHg
same,Change in heart rate,healthy human subjects [4]; Oxymetazoline dose 0.01%,−3 beats/min
same,Change in systolic Blood pressure,healthy human subjects [4]; Oxymetazoline dose 0.01%,6 mmHg
same,Change in diastolic blood pressure,healthy human subjects [4]; Oxymetazoline dose 0.1%,0 mmHg
same,Change in heart rate,healthy human subjects [4]; Oxymetazoline dose 0.1%,0 beats/min
same,Change in systolic Blood pressure,healthy human subjects [4]; Oxymetazoline dose 0.1%,5 mmHg
same,Change in diastolic blood pressure,healthy human subjects [4]; Oxymetazoline dose 0.5%,1 mmHg
same,Change in heart rate,healthy human subjects [4]; Oxymetazoline dose 0.5%,1 beats/min
same,Change in systolic Blood pressure,healthy human subjects [4]; Oxymetazoline dose 0.5%,3 mmHg
same,"Changes in the diastolic blood pressure, systolic blood pressure or in the heart rate",healthy human subjects [4]; low doses of about 0.1%,did not induce any changes
same,Cardiovascular side effect,healthy human subjects [4]; low doses of oxymetazoline (0.01%-0.5%),do not induce any cardiovascular side effect
same,Solubility,[5],soluble in aqueous and non aqueous media
same,Change Relative to T = 0 (resting anal pressure),Healthy volunteers; [12],0 mmHg
same,Resting anal pressure,Healthy volunteers; [12],75 mmHg
same,Change Relative to T = 0 (resting anal pressure),Healthy volunteers; [13],18 mmHg
same,Resting anal pressure,Healthy volunteers; [13],93 mmHg
same,Change Relative to T = 0 (resting anal pressure),Healthy volunteers; [14],28 mmHg
same,Resting anal pressure,Healthy volunteers; [14],103 mmHg
same,Change Relative to T = 0 (resting anal pressure),Healthy volunteers; [15],27 mmHg
same,Resting anal pressure,Healthy volunteers; [15],102 mmHg
same,Increase in the maximum resting pressure relative to the pressure before treatment,Healthy volunteers; oxymetazoline 1 mg intraanal,about 30 mmHg
same,Time for which the increased resting anal pressure was maintained,"Healthy volunteers; oxymetazoline 1 mg intraanal, duration of the recording",at least 5 hours
